Patent US20050038074A1, “Mitotic kinesin inhibitors” (priority 2003, published 2005)

Molecular target: T1, human KSP motor domain (KSP(367H)) (Homo sapiens, UniProt P52732)
T1 construct: were used to amplify the motor domain and the neck linker region; made in house; host or cells: E. coli BL21 (DE3)
T1 sequence (P52732 18-359 limits assumed): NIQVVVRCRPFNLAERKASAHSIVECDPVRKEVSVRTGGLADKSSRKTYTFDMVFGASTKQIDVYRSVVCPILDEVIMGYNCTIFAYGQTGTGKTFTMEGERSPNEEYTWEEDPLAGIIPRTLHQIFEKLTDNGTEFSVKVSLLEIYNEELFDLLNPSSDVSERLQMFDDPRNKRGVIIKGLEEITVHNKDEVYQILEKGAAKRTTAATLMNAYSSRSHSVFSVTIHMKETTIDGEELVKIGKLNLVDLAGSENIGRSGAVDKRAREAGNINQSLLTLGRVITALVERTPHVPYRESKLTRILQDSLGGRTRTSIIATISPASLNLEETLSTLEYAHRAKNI
Assay: Kinesin ATPase In Vitro Assay
Format: biochemical
Settings: kinesin motor domain with microtubules, 1 mM ATP, 23° C.; free phosphate by quinaldine red/ammonium molybdate
Source text: I. Kinesin ATPase In Vitro Assay
Cloning and Expression of Human Poly-Histidine Tagged KSP Motor Domain (KSP(367H))
Plasmids for the expression of the human KSP motor domain construct were cloned by PCR using a pBluescript full length human KSP construct (Blangy et al., Cell, vol.83, pp1159-1169, 1995) as a template. The N-terminal primer 5′-[…] (SEQ.ID.NO.: 1) and the C-terminal primer 5′-[…] […] (SEQ.ID.NO.: 2) were used to amplify the motor domain and the neck linker region. The PCR products were digested with AseI and XhoI, ligated into the NdeI/XhoI digestion product of pRSETa (Invitrogen) and transformed into E. coli BL21 (DE3).
Cells were grown at 37° C. to an OD600 of 0.5. After cooling the culture to room temperature expression of KSP was induced with 100 μM IPTG and incubation was continued overnight. Cells were pelleted by centrifugation and washed once with ice-cold PBS. Pellets were flash-frozen and stored −80° C.
Cell pellets were thawed on ice and resuspended in lysis buffer (50 mM K-HEPES, pH 8.0, 250 mM KCl, 0.1% Tween, 10 mM imidazole, 0.5 mM Mg-ATP, 1 mM PMSF, 2 mM benzimidine, 1× complete protease inhibitor cocktail (Roche)). Cell suspensions were incubated with 1 mg/ml lysozyme and 5 mM β-mercaptoethanol on ice for 10 minutes, followed by sonication (3×30 sec). All subsequent procedures were performed at 4° C. Lysates were centrifuged at 40,000×g for 40 minutes. Supernatants were diluted and loaded onto an SP Sepharose column (Pharmacia, 5 ml cartridge) in buffer A (50 mM K-HEPES, pH 6.8, 1 mM MgCl2, 1 mM EGTA, 10 μM Mg-ATP, 1 mM DTT) and eluted with a 0 to 750 mM KCl gradient in buffer A. Fractions containing KSP were pooled and incubated with Ni-NTA resin (Qiagen) for one hour. The resin was washed three times with buffer B (Lysis buffer minus PMSF and protease inhibitor cocktail), followed by three 15-minute incubations and washes with buffer B. Finally, the resin was incubated and washed for 15 minutes three times with buffer C (same as buffer B except for pH 6.0) and poured into a column. KSP was eluted with elution buffer (identical to buffer B except for 150 mM KCl and 250 mM imidazole). KSP-containing fractions were pooled, made 10% in sucrose, and stored at −80° C.
Microtubules are prepared from tubulin isolated from bovine brain. Purified tubulin (>97% MAP-free) at 1 mg/ml is polymerized at 37° C. in the presence of 10 JAM paclitaxel, 1 mM DTT, 1 mM GTP in BRB80 buffer (80 mM K-PIPES, 1 mM EGTA, 1 mM MgCl2 at pH 6.8). The resulting microtubules are separated from non-polymerized tubulin by ultracentrifugation and removal of the supernatant. The pellet, containing the microtubules, is gently resuspended in 10 μM paclitaxel, 1 mM DTT, 50 μg/ml ampicillin, and 5 μg/ml chloramphenicol in BRB80.
The kinesin motor domain is incubated with microtubules, 1 mM ATP (1:1 MgCl2: Na-ATP), and compound at 23° C. in buffer containing 80 mM K-HEPES (pH 7.0), 1 mM EGTA, 1 mM DTT, 1 mM MgCl2, and 50 mM KCl. The reaction is terminated by a 2-10 fold dilution with a final buffer composition of 80 mM HEPES and 50 mM EDTA. Free phosphate from the ATP hydrolysis reaction is measured via a quinaldine red/ammonium molybdate assay by adding 150 μl of quench C buffer containing a 2:1 ratio of quench A:quench B. Quench A contains 0.1 mg/mil quinaldine red and 0.14% polyvinyl alcohol; quench B contains 12.3 mM ammonium molybdate tetrahydrate in 1.15 M sulfuric acid. The reaction is incubated for 10 minutes at 23° C., and the absorbance of the phospho-molybdate complex is measured at 540 nm.

IC50 [µM] | Compound
≤ 50 | CN1CC[C@@H](N(C)C(=O)N2CC(c3cc(F)ccc3F)=C[C@@]2(CO)c2ccccc2)[C@H](F)C1 (single isomer, unassigned) [Compound 5-3]
≤ 50 | CN1CC[C@H](N(C)C(=O)N2CC(c3cc(F)ccc3F)=C[C@@]2(CO)c2ccccc2)[C@H](F)C1 [Compound 3-1, (2S)-4-(2,5-Difluorophenyl)-N-[(3R,4S)-3-fluoro-1-methylpiperidin-4-yl]-2-(hydroxymethyl)-N-methyl-2-phenyl-2,5-dihydro-1H-pyrrole-1-carboxamide]
≤ 50 | CN1CC[C@@H](N(C)C(=O)N2CC(c3cc(F)ccc3F)=C[C@@]2(CO)c2ccccc2)[C@@H](F)C1 [Compound 4-2, (2S)-4-(2,5-Difluorophenyl)-N-[(3S,4R)-3-fluoro-1-methylpiperidin-4-yl]-2-(hydroxymethyl)-N-methyl-2-phenyl-2,5-dihydro-1H-pyrrole-1-carboxamide]
≤ 50 | CC(C)N1CC[C@H](N(C)C(=O)N2CC(c3cc(F)ccc3F)=C[C@@]2(CO)c2ccccc2)[C@H](F)C1 [Compound 11-1, (2S)-4-(2,5-Difluorophenyl)-N-[(3R,4S)-3-fluoro-1-isopropylpiperidin-4-yl]-2-(hydroxymethyl)-N-methyl-2-phenyl-2,5-dihydro-1H-pyrrole-1-carboxamide]
≤ 50 | CN(C(=O)N1CC(c2cc(F)ccc2F)=C[C@@]1(CO)c1ccccc1)[C@@H]1CCNC[C@H]1F [Compound 12-2, (2S)-4-(2,5-Difluorophenyl)-N-[(3R,4R)-3-fluoropiperidin-4-yl]-2-(hydroxymethyl)-N-methyl-2-phenyl-2,5-dihydro-1H-pyrrole-1-carboxamide]
≤ 50 | CN(C(=O)N1CC(c2cc(F)ccc2F)=C[C@@]1(CO)c1ccccc1)C1CCNCC1F (stereo in doubt) [Compound 10-2, (2S)-4-(2,5-Difluorophenyl)-N-[(3S,4R)-3-fluoropiperidin-4-yl]-2-(hydroxymethyl)-N-methyl-2-phenyl-2,5-dihydro-1H-pyrrole-1-carboxamide]

The remaining lines, values behind:

Compound | IC50 [µM]
CN(C(=O)N1CC(c2cc(F)ccc2F)=C[C@@]1(CO)c1ccccc1)[C@H]1CCNC[C@@H]1F [Compound 12-3, (2S)-4-(2,5-Difluorophenyl)-N-[(3S,4S)-3-fluoropiperidin-4-yl]-2-(hydroxymethyl)-N-methyl-2-phenyl-2,5-dihydro-1H-pyrrole-1-carboxamide] | ≤ 50
CN1CC[C@@H](N(C)C(=O)N2CC(c3cc(F)ccc3F)=C[C@H]2c2ccccc2)[C@H](F)C1 [Compound 7-3, (2S)-4-(2,5-Difluorophenyl)-N-[(3R,4R)-3-fluoro-1-methylpiperidin-4-yl]-N-methyl-2-phenyl-2,5-dihydro-1H-pyrrole-1-carboxamide] | ≤ 50
CN1CC[C@H](N(C)C(=O)N2CC(c3cc(F)ccc3F)=C[C@H]2c2ccccc2)[C@H](F)C1 [Compound 7-1, (2S)-4-(2,5-Difluorophenyl)-N-[(3R,4S)-3-fluoro-1-methylpiperidin-4-yl]-N-methyl-2-phenyl-2,5-dihydro-1H-pyrrole-1-carboxamide] | ≤ 50
CN(C(=O)N1CC(c2cc(F)ccc2F)=C[C@@]1(CO)c1ccccc1)[C@@H]1CCNC[C@@H]1F [Compound 12-1, (2S)-4-(2,5-Difluorophenyl)-N-[(3S,4R)-3-fluoropiperidin-4-yl]-2-(hydroxymethyl)-N-methyl-2-phenyl-2,5-dihydro-1H-pyrrole-1-carboxamide] | ≤ 50
CN(C(=O)N1CC(c2cc(F)ccc2F)=C[C@@]1(CO)c1ccccc1)[C@H]1CC[N+](C)([O-])C[C@H]1F (stereo partly drawn) [Compound 9-1, (2S)-4-(2,5-Difluorophenyl)-N-[(3R,4S)-3-fluoro-1-methyl-1-oxidopiperidin-4-yl]-2-(hydroxymethyl)-N-methyl-2-phenyl-2,5-dihydro-1H-pyrrole-1-carboxamide] | ≤ 50
CN1CC[C@@H](N(C)C(=O)N2CC(c3cc(F)ccc3F)=C[C@H]2c2ccccc2)[C@@H](F)C1 [Compound 7-2, (2S)-4-(2,5-Difluorophenyl)-N-[(3S,4R)-3-fluoro-1-methylpiperidin-4-yl]-N-methyl-2-phenyl-2,5-dihydro-1H-pyrrole-1-carboxamide] | ≤ 50
